Measurements reported in patent US7824850B2, “Methods of protein destabilization and uses thereof” (Aurora Biosciences Corporation, priority 2000, dated 2010).
Where a SMILES comes first, the peptide text is derived from it. [ ]: non-standard residue; d: D form. The star is where a group is joined. Nle = CCCC[C@H](N)C(=O)O; Cbz = O=C(OCc1ccccc1)*; CH2F = FC*

Key:
proteasome [1] = test: In vitro degradation of 2XUb-Bla in chase lysate with inhibitors; conditions: 20 minutes at 37° C.
proteasome [2] = test: TNT in vitro synthesis of multiUb-Bla fusions with or without proteasome inhibitor; conditions: 50 μM; β-lactamase fusions containing 2, 3 or 4 copies of ubiquitinG76V
Description: S-Labeled multimerized destabilization domain-β-lactamase fusion protein molecules were produced using a coupled in vitro transcription/translation system based on a rabbit reticulocyte lysate (TNT T7 Quick; Promega).

HRV16 2A protease = test: HRV 2A protease cell-based assay, Jurkat clone expressing 3XUb-HRV16-Bla; design: species or system human rhinovirus 16; conditions: compound 1 μM, 4 hours, cycloheximide 30 minutes
Description: (§1) To assay HRV 2A protease activity, the selected Jurkat stable cell clones were treated for 16 hours with […] clavulanate to inactivate pre-existing cleaved and uncleaved HRV 2A-Bla fusion protein. Cells were then washed twice with PBS, resuspended at 100,000 cells/well in 100 μl RPMI+10% FBS in 96-well plates. The cells were incubated at 37° C. for 4 hours in the presence or absence of an inhibitor of the 2A protease. Cells were treated with 100 μg/ml cycloheximide for 30 minutes at 37° C., loaded with CCF2-AM for 2 hours at room temperature and read on the CytoFluor plate reader as described in Example 8. Inhibitor compounds, radicicol and geldanamycin, were used for the validation of the HRV protease cell-based assay. […] Compounds were tested at 1 μM for their ability to inhibit the HRV 2A protease cell-based assay using clones expressing HRV16 and HRV14 2A protease reporters.

HRV14 2A protease = test: HRV 2A protease cell-based assay, Jurkat clone expressing 3XUb-HRV14-Bla; design: species or system human rhinovirus 14; conditions: compound 1 μM, 4 hours, cycloheximide 30 minutes
Description: as §1

β-lactamase = biological target: T1, β-lactamase (Escherichia coli, UniProt P62593); test: Control: β-lactamase activity in Jurkat cells expressing wild-type β-lactamase; assay type: cell-based; conditions: data not shown
T1 construct: wild-type (cleavable) ubiquitin (N, cleaved yes); expressed in transfected cells; host or cells: Jurkat
T1 sequence (P62593 24-286 limits assumed): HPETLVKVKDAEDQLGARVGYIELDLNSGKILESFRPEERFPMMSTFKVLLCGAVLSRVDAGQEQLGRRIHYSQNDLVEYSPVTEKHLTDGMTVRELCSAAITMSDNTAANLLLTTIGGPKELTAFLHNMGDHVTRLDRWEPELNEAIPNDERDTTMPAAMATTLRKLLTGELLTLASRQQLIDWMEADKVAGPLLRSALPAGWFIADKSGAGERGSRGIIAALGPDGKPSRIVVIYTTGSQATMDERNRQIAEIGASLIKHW

[3] = overnight treatment of Jurkat cells; cited from earlier work
proteasome [4] = biological target: T2, proteasome (Homo sapiens, UniProt P28074); conditions: read-out: IC50 inhibition of decay of β-lactamase activity; Jurkat cells expressing 2XUb-Bla, 30 minutes preincubation, cycloheximide 1 hour
T2 sequence (P28074 60-263): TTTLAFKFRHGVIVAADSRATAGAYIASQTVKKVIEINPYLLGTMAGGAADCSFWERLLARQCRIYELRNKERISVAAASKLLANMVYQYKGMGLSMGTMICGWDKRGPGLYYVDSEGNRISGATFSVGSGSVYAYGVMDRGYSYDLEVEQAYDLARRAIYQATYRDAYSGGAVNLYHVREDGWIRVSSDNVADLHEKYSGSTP
T2 sequence (P28072 35-239 partner): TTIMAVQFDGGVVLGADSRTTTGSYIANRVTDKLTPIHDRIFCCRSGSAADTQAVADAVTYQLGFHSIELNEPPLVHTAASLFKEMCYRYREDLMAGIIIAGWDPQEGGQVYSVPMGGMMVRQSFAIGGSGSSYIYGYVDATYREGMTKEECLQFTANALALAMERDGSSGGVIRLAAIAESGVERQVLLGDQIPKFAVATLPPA
T2 sequence (Q99436 44-277 partner): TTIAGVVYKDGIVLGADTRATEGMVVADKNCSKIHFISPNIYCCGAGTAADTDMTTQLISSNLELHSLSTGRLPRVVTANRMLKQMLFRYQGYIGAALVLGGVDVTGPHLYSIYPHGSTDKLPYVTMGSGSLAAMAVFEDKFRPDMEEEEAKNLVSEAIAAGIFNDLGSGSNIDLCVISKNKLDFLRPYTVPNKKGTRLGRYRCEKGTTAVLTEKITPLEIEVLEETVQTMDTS
Description: The cells were loaded with CCF2-AM to measure β-lactamase activity as described above.
After 1 hour at 37° C., the cells were cooled to room temperature and then loaded with 1 μM CCF2-AM and β-lactamase activity quantified using a CytoFluor plate reader. The background-subtracted emission values at 460 nm and 530 nm were expressed as a 460/530 ratio and dose-response curves were plotted.

group II caspases = test: Caspase activity assay in Jurkat clones expressing 2XUb-DEVD-Bla or 2XUb-DEVA-Bla (CCF2-AM, 460/530 ratio); assay type: cell-based, human

CC(=O)N[C@@H](CSC(=O)[C@]1([C@@H](O)C(C)C)NC(=O)[C@H](C)[C@@H]1O)C(=O)O [lactacystin]
effect on degradation of 2XUb-Bla in vitro (proteasome [1]; 10 μM): stabilized the 2XUb-Bla fusion protein

CC(C)C[C@@H](C=O)NC(=O)[C@H](CC(C)C)NC(=O)[C@H](CC(C)C)NC(=O)OCc1ccccc1 [MG132] (Cbz-Leu-Leu-Leu-aldehyde)
effect on amount of fusion protein synthesized (proteasome [2]): dramatic increase in the amount of fusion protein synthesized

COC1=C2C[C@@H](C)C[C@H](OC)[C@H](O)[C@@H](C)/C=C(\C)[C@H](OC(N)=O)[C@@H](OC)/C=C\C=C(/C)C(=O)NC(=CC1=O)C2=O [geldanamycin]
460/530 nm ratio (HRV16 2A protease): 0.239
460/530 nm ratio (HRV14 2A protease): 0.153

C[C@@H]1C[C@H]2O[C@@H]2/C=C\C=C\C(=O)Cc2c(Cl)c(O)cc(O)c2C(=O)O1 [radicicol]
460/530 nm ratio (HRV16 2A protease): 0.229
460/530 nm ratio (HRV14 2A protease): 0.152
inhibition of β-lactamase activity (control) (β-lactamase): did not inhibit β-lactamase activity

O=C(O)[C@H]1/C(=C/CO)O[C@@H]2CC(=O)N21 [Clavulanate, clavulanate]
effect on β-lactamase levels [3]: reduces β-lactamase levels to background

CCCC[C@@H](C=O)NC(=O)[C@H](CC(C)C)NC(=O)[C@H](CC(C)C)NC(C)=O [Ac-LLN] (Ac-Leu-Leu-[Nle]-aldehyde)
effect on degradation of 2XUb-Bla in vitro (proteasome [1]; 50 μM): stabilized the 2XUb-Bla fusion protein
IC50 (proteasome [4]): 13 µM

COC(=O)C[C@H](NC(=O)[C@H](C)NC(=O)[C@@H](NC(=O)OCc1ccccc1)C(C)C)C(=O)CF [Z-VAD-fmk] (Cbz-Val-Ala-Asp(OMe)-CH2F)
effect on stabilization of DEVD-Bla reporters (group II caspases; 10 μM coincident with anti-Fas addition): blocked the stabilization of DEVD-Bla reporters
IC50 (group II caspases; Jurkat cells expressing 2XUb-DEVD-Bla, 50 ng/ml anti-Fas IgM, read-out: IC50 inhibition of anti-Fas induced caspase activity): 5 µM
